According to ChEMBL document CHEMBL1201862, “PubChem BioAssay data set” (2004):
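A five-concentration, 48-hour dose response in 96-well plates underlies each endpoint, interpolated linearly between surrounding concentrations. GI50: concentration for 50% inhibition of growth.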 Active and inactive are the calls of the source. Cut-off read from the data, not from the text of the source: active = GI50 up to about 1.1 µM and inactive = higher.

How the values were obtained:
Assay in all cases: NCI anticancer screen, dose series, 48 h
[1] = system: SNB-19
[2] = system: HL-60
[3] = system: NCI-H226
[4] = system: SK-OV-3
[5] = system: RXF 393
[6] = system: SF-539
[7] = system: OVCAR-4
[8] = system: A549
[9] = system: UACC-62
[10] = system: SF-295
[11] = system: T47D
[12] = system: ACHN
[13] = system: U-251
[14] = system: HCT-116
[15] = system: COLO 205
[16] = system: EKVX
[17] = system: KM12
[18] = system: NCI-H522
[19] = system: LOX IMVI
[20] = system: SN12C
[21] = system: K562
[22] = system: UACC-257
[23] = system: PC-3
[24] = system: MDA-N
[25] = system: Malme-3M
[26] = system: A498
[27] = system: OVCAR-3
[28] = system: OVCAR-8
[29] = system: IGROV-1
[30] = system: SF-268
[31] = system: M14
[32] = system: SK-MEL-5
[33] = system: HT-29
[34] = system: NCI-H23
[35] = system: CCRF-CEM
[36] = system: TK-10
[37] = system: SK-MEL-28
[38] = system: CAKI-1
[39] = system: SK-MEL-2
[40] = system: HCT-15
[41] = system: HOP-62
[42] = system: SW-620
[43] = system: DU-145
[44] = system: Hs-578T
[45] = system: 786-0
[46] = system: UO-31
[47] = system: HCC 2998
[48] = system: SNB-75
[49] = system: MOLT-4
[50] = system: NCI-H460
[51] = system: MDA-MB-231
[52] = system: MCF7
[53] = system: HOP-92
[54] = system: RPMI-8226
[55] = system: SR
[56] = system: NCI/ADR-RES
[57] = system: OVCAR-5
[58] = system: MDA-MB-435

**Q.** What does the source list for `C(=C\C(SCc1ccccc1)SCc1ccccc1)/c1ccccc1`?
**A.** GI50 [1]: > 10 µM (inactive); GI50 [2]: > 10 µM (inactive); GI50 [3]: > 10 µM (inactive); GI50 [4]: > 10 µM (inactive); GI50 [5]: > 10 µM (inactive); GI50 [6]: > 10 µM (inactive); GI50 [7]: > 10 µM (inactive); GI50 [8]: > 10 µM (inactive); GI50 [9]: > 10 µM (inactive); GI50 [10]: > 10 µM (inactive); GI50 [11]: > 10 µM (inactive); GI50 [12]: > 10 µM (inactive); GI50 [13]: > 10 µM (inactive); GI50 [14]: > 10 µM (inactive); GI50 [15]: > 10 µM (inactive); GI50 [16]: > 10 µM (inactive); GI50 [17]: > 10 µM (inactive); GI50 [18]: > 10 µM (inactive); GI50 [19]: > 10 µM (inactive); GI50 [20]: > 10 µM (inactive); GI50 [21]: > 10 µM (inactive); GI50 [22]: > 10 µM (inactive); GI50 [23]: > 10 µM (inactive); GI50 [24]: > 10 µM (inactive); GI50 [25]: > 10 µM (inactive); GI50 [26]: > 10 µM (inactive); GI50 [27]: > 10 µM (inactive); GI50 [28]: > 10 µM (inactive); GI50 [29]: > 10 µM (inactive); GI50 [30]: > 10 µM (inactive); GI50 [31]: > 10 µM (inactive); GI50 [32]: > 10 µM (inactive); GI50 [33]: > 10 µM (inactive); GI50 [34]: > 10 µM (inactive); GI50 [35]: > 10 µM (inactive); GI50 [36]: > 10 µM (inactive); GI50 [37]: > 10 µM (inactive); GI50 [38]: > 10 µM (inactive); GI50 [39]: > 10 µM (inactive); GI50 [40]: > 10 µM; GI50 [41]: > 10 µM (inactive); GI50 [42]: > 10 µM (inactive); GI50 [43]: > 10 µM (inactive); GI50 [44]: > 10 µM (inactive); GI50 [45]: > 10 µM (inactive); GI50 [46]: > 10 µM (inactive); GI50 [47]: > 10 µM (inactive); GI50 [48]: > 10 µM (inactive); GI50 [49]: > 10 µM (inactive); GI50 [50]: > 10 µM (inactive); GI50 [51]: > 10 µM (inactive); GI50 [52]: > 10 µM (inactive); GI50 [53]: > 10 µM (inactive); GI50 [54]: > 10 µM (inactive); GI50 [55]: > 10 µM (inactive); GI50 [56]: > 10 µM (inactive)

**Q.** For `COc1c(Br)cc2ccccc2c1-c1c(OC)c(Br)cc2ccccc12`, which GI50 [1] is on record?
**A.** Its GI50 is > 100 µM (inactive).

**Q.** And the GI50 [2]?
**A.** Its GI50 is 25.6 µM (inactive).

**Q.** What about the GI50 [3] of the same compound?
**A.** Its GI50 is > 100 µM (inactive).

**Q.** What about the GI50 [4] of the same compound?
**A.** Its GI50 is > 100 µM (inactive).

**Q.** And the GI50 [5]?
**A.** Its GI50 is > 100 µM (inactive).

**Q.** And the GI50 [6]?
**A.** Its GI50 is > 100 µM (inactive).

**Q.** And the GI50 [7]?
**A.** The GI50 was > 100 µM (inactive).

**Q.** What about the GI50 [8] of the same compound?
**A.** Its GI50 is > 100 µM (inactive).

**Q.** And the GI50 [9]?
**A.** Its GI50 is > 100 µM (inactive).

**Q.** And the GI50 [10]?
**A.** The GI50 was > 100 µM (inactive).

**Q.** And the GI50 [11]?
**A.** Its GI50 is 7.01 µM (inactive).

**Q.** And the GI50 [12]?
**A.** Its GI50 is > 100 µM (inactive).

**Q.** And the GI50 [13]?
**A.** Its GI50 is > 100 µM (inactive).

**Q.** And the GI50 [15]?
**A.** Its GI50 is > 100 µM (inactive).

**Q.** And the GI50 [16]?
**A.** Its GI50 is > 100 µM (inactive).

**Q.** And the GI50 [17]?
**A.** Its GI50 is 79.1 µM (inactive).

**Q.** What about the GI50 [18] of the same compound?
**A.** The GI50 was 74.6 µM (inactive).

**Q.** And the GI50 [19]?
**A.** Its GI50 is > 100 µM (inactive).

**Q.** What about the GI50 [21] of the same compound?
**A.** The GI50 was 38.9 µM (inactive).

**Q.** What about the GI50 [22] of the same compound?
**A.** Its GI50 is > 100 µM (inactive).

**Q.** What about the GI50 [23] of the same compound?
**A.** Its GI50 is 95.9 µM (inactive).

**Q.** And the GI50 [24]?
**A.** Its GI50 is > 100 µM (inactive).

**Q.** What about the GI50 [26] of the same compound?
**A.** The GI50 was > 100 µM (inactive).

**Q.** And the GI50 [27]?
**A.** The GI50 was > 100 µM (inactive).

**Q.** What about the GI50 [28] of the same compound?
**A.** The GI50 was > 100 µM (inactive).

**Q.** And the GI50 [29]?
**A.** The GI50 was > 100 µM (inactive).

**Q.** And the GI50 [30]?
**A.** Its GI50 is > 100 µM (inactive).

**Q.** And the GI50 [31]?
**A.** Its GI50 is > 100 µM (inactive).

**Q.** And the GI50 [32]?
**A.** Its GI50 is 67.5 µM (inactive).

**Q.** And the GI50 [33]?
**A.** The GI50 was > 100 µM (inactive).

**Q.** What about the GI50 [34] of the same compound?
**A.** The GI50 was > 100 µM (inactive).

**Q.** And the GI50 [35]?
**A.** The GI50 was > 100 µM (inactive).

**Q.** And the GI50 [36]?
**A.** Its GI50 is > 100 µM (inactive).

**Q.** What about the GI50 [37] of the same compound?
**A.** The GI50 was > 100 µM (inactive).

**Q.** And the GI50 [38]?
**A.** Its GI50 is > 100 µM (inactive).

**Q.** What about the GI50 [39] of the same compound?
**A.** The GI50 was > 100 µM (inactive).

**Q.** And the GI50 [40]?
**A.** The GI50 was over 100 µM.

**Q.** What about the GI50 [41] of the same compound?
**A.** Its GI50 is > 100 µM (inactive).

**Q.** And the GI50 [42]?
**A.** Its GI50 is > 100 µM (inactive).

**Q.** And the GI50 [43]?
**A.** Its GI50 is > 100 µM (inactive).

**Q.** What about the GI50 [44] of the same compound?
**A.** Its GI50 is > 100 µM (inactive).

**Q.** And the GI50 [45]?
**A.** The GI50 was > 100 µM (inactive).

**Q.** And the GI50 [46]?
**A.** The GI50 was > 100 µM (inactive).

**Q.** What about the GI50 [47] of the same compound?
**A.** The GI50 was > 100 µM (inactive).

**Q.** And the GI50 [48]?
**A.** The GI50 was > 100 µM (inactive).

**Q.** What about the GI50 [57] of the same compound?
**A.** The GI50 was > 100 µM (inactive).

**Q.** And the GI50 [49]?
**A.** The GI50 was 6.32 µM (inactive).

**Q.** What about the GI50 [50] of the same compound?
**A.** Its GI50 is > 100 µM (inactive).

**Q.** What about the GI50 [51] of the same compound?
**A.** Its GI50 is > 100 µM (inactive).

**Q.** What about the GI50 [52] of the same compound?
**A.** Its GI50 is 49.9 µM (inactive).

**Q.** And the GI50 [53]?
**A.** Its GI50 is > 100 µM (inactive).

**Q.** What about the GI50 [54] of the same compound?
**A.** The GI50 was 80.5 µM (inactive).

**Q.** And the GI50 [58]?
**A.** The GI50 was > 100 µM (inactive).

**Q.** And the GI50 [56]?
**A.** The GI50 was > 100 µM (inactive).
